# In PMC11345841, “Exploring 2-Sulfonylpyrimidine Warheads as Acrylamide Surrogates for Targeted Covalent Inhibition: A BTK Story” (Journal of Medicinal Chemistry, 2024):
# Like-named read-outs stand apart in the source and are kept apart here.
# Experiments:
# [1] = system: TMD8 cells; assay: Annexin V/propidium iodide staining (apoptosis, viability); assay type: cell-based, human; settings: 72 h
# Protocol: We tested the effects of compounds in TMD8 cells, derived from an activated B-cell DLBCL. These cells have constitutive signaling via the BCR and additionally carry MYD88^L265P and CD79B mutations which give rise to My-T-BCR complex. […] Apoptosis was quantified after exposure of cells to compounds for 72 h using annexin V/PI staining and flow cytometry (Figure 3E, Figure S4).
# Cells were washed in phosphate-buffered saline and resuspended in 300 μL of annexin V staining buffer (10 mM HEPES HCl (pH 7.4), 140 mM NaCl, 2.5 mM CaCl2) supplemented with 2.5 μg/mL fluorescein isothiocyanate-labeled annexin V (kind gift from Dr Patrick Duriez, Protein Core Facility, University of Southampton) and 12.5 μM propidium iodide (Invitrogen). Cells were analyzed by flow cytometry (Canto II system, BD Biosciences) and the percentage of viable cells was determined by calculating the proportion of Annexin V-/PI-cells as a percentage of all cells (results for untreated cells at 72 h set to 100%).
# [2] = biological target: T1, EGFR(L858R,T790M) (Homo sapiens, UniProt P00533, L858R/T790M); assay: KINOMEscan ScanTK; assay type: binding
# T1 construct: purchased Eurofins DiscoverX KINOMEscan (scanTK)
# T1 sequence (P00533 25-1210 T790M/L858R): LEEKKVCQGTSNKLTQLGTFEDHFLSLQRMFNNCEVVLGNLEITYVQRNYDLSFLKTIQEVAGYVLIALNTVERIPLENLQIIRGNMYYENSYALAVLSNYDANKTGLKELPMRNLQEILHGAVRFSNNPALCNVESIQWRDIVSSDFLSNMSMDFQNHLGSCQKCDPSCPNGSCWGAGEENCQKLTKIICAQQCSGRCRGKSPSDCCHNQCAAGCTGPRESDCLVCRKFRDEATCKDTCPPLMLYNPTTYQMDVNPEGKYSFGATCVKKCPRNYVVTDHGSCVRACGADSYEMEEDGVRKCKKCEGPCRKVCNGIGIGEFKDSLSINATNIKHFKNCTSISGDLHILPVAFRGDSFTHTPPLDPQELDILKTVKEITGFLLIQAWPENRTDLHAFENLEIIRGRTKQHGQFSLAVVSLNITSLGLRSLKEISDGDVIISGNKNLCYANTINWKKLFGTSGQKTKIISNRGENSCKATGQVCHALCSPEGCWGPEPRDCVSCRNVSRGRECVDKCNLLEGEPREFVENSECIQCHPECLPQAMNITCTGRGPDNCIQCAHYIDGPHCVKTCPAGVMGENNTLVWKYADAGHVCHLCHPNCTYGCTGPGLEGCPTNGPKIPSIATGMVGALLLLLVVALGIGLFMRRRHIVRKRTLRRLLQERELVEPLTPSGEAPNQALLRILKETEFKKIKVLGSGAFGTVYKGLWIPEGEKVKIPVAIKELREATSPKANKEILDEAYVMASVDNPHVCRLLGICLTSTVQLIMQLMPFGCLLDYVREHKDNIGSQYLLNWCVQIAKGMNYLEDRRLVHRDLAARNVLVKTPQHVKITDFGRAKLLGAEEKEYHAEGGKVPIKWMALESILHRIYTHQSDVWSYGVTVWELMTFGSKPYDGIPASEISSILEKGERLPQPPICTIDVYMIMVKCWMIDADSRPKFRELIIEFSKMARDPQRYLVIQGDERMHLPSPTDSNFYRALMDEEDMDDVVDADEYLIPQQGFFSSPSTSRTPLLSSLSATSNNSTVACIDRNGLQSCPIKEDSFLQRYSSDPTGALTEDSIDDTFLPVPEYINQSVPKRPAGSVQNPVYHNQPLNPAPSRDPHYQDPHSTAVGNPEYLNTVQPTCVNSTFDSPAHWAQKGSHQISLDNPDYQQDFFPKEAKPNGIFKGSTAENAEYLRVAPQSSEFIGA
# [3] = system: FLT3(ITD); assay: KINOMEscan ScanTK; assay type: binding
# [4] = biological target: T2, JAK2(JH1domain-catalytic) (Homo sapiens, UniProt O60674); assay: KINOMEscan ScanTK; assay type: binding
# T2 construct: JAK2(JH1domain-catalytic); purchased Eurofins DiscoverX KINOMEscan (scanTK)
# T2 sequence (O60674 849-1132 limits assumed): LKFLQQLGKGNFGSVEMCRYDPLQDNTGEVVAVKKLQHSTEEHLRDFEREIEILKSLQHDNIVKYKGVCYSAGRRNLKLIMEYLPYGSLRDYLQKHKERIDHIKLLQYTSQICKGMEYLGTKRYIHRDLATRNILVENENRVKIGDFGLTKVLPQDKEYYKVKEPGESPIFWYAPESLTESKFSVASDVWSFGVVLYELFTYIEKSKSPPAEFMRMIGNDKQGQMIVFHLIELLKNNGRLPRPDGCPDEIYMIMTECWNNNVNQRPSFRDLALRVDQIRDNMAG
# [5] = biological target: T3, KIT(D816H) (Homo sapiens, UniProt P10721, D816H); assay: KINOMEscan ScanTK; assay type: binding
# T3 construct: purchased Eurofins DiscoverX KINOMEscan (scanTK)
# T3 sequence (P10721 26-976 D816H): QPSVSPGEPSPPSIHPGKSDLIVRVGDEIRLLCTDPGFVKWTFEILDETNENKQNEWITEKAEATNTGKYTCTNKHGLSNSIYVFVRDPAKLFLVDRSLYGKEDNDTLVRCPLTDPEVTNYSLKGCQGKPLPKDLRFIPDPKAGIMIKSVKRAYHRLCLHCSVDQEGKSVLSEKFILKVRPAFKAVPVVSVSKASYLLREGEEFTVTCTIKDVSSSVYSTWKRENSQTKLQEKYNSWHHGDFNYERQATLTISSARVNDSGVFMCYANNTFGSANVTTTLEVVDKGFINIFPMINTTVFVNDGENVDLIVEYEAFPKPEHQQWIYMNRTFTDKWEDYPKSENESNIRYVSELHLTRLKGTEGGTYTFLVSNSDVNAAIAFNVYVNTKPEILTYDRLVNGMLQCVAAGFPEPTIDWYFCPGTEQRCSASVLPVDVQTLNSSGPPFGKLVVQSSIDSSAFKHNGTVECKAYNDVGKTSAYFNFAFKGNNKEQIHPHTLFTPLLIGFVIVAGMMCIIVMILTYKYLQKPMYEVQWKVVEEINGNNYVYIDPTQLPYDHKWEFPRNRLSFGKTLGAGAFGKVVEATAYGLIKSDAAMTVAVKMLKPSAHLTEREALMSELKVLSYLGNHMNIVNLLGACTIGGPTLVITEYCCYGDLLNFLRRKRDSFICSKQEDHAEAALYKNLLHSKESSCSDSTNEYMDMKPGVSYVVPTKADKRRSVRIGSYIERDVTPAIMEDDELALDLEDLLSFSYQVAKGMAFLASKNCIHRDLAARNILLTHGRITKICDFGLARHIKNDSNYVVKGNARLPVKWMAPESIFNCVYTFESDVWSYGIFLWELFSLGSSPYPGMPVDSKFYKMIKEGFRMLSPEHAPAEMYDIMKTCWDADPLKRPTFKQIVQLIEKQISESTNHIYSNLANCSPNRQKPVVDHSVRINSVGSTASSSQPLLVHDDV
# [6] = biological target: T4, LYN (Homo sapiens, UniProt P07948); assay: KINOMEscan ScanTK; assay type: binding
# T4 construct: purchased Eurofins DiscoverX KINOMEscan (scanTK)
# T4 sequence (P07948 whole entry): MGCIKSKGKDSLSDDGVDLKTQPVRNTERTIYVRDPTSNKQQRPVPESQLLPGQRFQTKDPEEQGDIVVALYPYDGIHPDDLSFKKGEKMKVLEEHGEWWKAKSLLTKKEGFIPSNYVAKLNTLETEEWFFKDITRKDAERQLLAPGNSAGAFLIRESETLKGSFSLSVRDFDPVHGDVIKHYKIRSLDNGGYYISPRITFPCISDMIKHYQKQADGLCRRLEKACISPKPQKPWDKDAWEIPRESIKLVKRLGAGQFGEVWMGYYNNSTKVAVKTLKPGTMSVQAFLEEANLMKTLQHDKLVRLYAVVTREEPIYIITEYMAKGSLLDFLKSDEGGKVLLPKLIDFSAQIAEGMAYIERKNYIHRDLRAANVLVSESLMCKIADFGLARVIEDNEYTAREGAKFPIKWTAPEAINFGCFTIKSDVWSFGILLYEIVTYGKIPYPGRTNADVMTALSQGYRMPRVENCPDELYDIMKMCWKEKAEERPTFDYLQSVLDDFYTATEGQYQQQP
# [7] = biological target: T5, TNK1 (Homo sapiens, UniProt Q13470); assay: KINOMEscan ScanTK; assay type: binding
# T5 construct: purchased Eurofins DiscoverX KINOMEscan (scanTK)
# T5 sequence (Q13470 1-666): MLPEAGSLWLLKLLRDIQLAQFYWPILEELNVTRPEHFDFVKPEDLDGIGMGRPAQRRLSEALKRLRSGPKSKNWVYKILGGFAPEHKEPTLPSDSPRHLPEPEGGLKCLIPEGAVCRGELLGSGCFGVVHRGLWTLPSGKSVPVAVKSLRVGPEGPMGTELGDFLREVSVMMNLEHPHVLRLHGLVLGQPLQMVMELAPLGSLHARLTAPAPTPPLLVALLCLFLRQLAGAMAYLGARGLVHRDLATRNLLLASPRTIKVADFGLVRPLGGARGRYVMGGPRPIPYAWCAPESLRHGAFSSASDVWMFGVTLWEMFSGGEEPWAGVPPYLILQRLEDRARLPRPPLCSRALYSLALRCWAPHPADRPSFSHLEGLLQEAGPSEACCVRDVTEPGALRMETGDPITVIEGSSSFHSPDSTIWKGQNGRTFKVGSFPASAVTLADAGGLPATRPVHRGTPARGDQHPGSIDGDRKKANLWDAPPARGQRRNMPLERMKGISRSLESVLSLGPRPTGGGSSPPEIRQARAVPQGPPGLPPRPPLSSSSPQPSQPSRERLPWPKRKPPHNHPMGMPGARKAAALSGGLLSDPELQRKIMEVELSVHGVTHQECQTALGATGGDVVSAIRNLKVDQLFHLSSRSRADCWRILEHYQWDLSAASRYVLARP
# [8] = biological target: T6, ZAP70 (Homo sapiens, UniProt P43403); assay: KINOMEscan ScanTK; assay type: binding
# T6 construct: purchased Eurofins DiscoverX KINOMEscan (scanTK)
# T6 sequence (P43403 1-619): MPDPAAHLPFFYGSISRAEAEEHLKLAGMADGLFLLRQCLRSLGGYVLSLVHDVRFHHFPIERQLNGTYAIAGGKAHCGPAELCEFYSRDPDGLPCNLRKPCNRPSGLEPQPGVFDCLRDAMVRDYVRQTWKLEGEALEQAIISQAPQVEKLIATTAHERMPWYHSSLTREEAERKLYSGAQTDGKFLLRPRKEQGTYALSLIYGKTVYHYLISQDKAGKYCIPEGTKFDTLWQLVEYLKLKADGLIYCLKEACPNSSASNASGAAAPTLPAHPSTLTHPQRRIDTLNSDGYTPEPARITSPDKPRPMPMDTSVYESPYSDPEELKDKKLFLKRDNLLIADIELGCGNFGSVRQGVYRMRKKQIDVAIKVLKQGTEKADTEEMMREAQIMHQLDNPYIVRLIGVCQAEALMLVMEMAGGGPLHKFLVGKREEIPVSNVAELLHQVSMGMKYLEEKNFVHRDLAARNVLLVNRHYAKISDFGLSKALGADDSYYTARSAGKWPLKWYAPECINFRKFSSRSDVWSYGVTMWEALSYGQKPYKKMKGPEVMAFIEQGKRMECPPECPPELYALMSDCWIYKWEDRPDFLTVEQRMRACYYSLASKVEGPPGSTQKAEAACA
# [9] = system: TMD8 cells; assay: RNA-seq gene expression; settings: for Expr Log Ratio: 8d versus Ibrutinib
smiles,measurement,setting,value
"CNC(=O)c1cnc(S(C)(=O)=O)nc1N1CCCC(n2nc(-c3ccc(Oc4ccccc4)cc3)c3c(N)ncnc32)C1 (stereo not drawn) [Compound 8d, 4-(3-(4-Amino-3-(4-phenoxyphenyl)-1H-pyrazolo[3,4-d]pyrimidin-1-yl)piperidin-1-yl)-N-methyl-2-(methylsulfonyl)pyrimidine-5-carboxamide]",fold lower apoptotic potency than Ibrutinib,[1],~10 fold
same,induction of apoptosis,[1],induced apoptosis
same,difference in % of control versus compound Ib at 1 µM,[2]; @1000nM,49%
same,remaining binding at 1 µM,"[2]; @1000nM, read-out: %Control",59%
same,remaining binding at 1 µM,[2]; read-out: %Control @1000nM,59%
same,%Control @1000nM,[3],94%
same,% difference (compound - Ib %Control),[3]; @1000nM,22%
same,%Control,[3]; @1000nM,94%
same,difference in %Control vs compound Ib at 1 µM,[4]; @1000nM,-14%
same,remaining binding at 1 µM,"[4]; @1000nM, read-out: %Control",86%
same,remaining binding at 1 µM,[4]; read-out: %Control @1000nM,86%
same,remaining binding at 1 µM,"[5]; @1000nM, read-out: %Control",50%
same,remaining binding at 1 µM,[5]; read-out: %Control @1000nM,50%
same,remaining binding at 1 µM,"[6]; @1000nM, read-out: %Control",43%
same,remaining binding at 1 µM,[6]; read-out: %Control @1000nM,43%
same,remaining binding at 1 µM,"[7]; @1000nM, read-out: %Control",97%
same,remaining binding at 1 µM,[7]; read-out: %Control @1000nM,97%
same,remaining binding at 1 µM,"[8]; @1000nM, read-out: %Control",100%
same,remaining binding at 1 µM,[8]; read-out: %Control @1000nM,100%
same,Expr Log Ratio,[9]; ACTN4,0.022
same,Expr Log Ratio,[9]; ACVR1C,-0.029
same,Expr Log Ratio,[9]; APC,0.064
same,Expr Log Ratio,[9]; APOC1,-0.164
same,Expr Log Ratio,[9]; ARHGAP31,0.01
same,Expr Log Ratio,[9]; ARNT2,0.044
same,Expr Log Ratio,[9]; AURKA,-0.004
same,Expr Log Ratio,[9]; BLOC1S5,-0.004
same,Expr Log Ratio,[9]; BMPR2,0.081
same,Expr Log Ratio,[9]; BRCA1,0.248
same,Expr Log Ratio,[9]; BRD7,0.035
same,Expr Log Ratio,[9]; BTRC,0.281
same,Expr Log Ratio,[9]; CD80,-0.429
same,Expr Log Ratio,[9]; CDKN1A,-0.127
same,Expr Log Ratio,[9]; COL1A1,-0.248
same,Expr Log Ratio,[9]; CREBZF,-0.251
same,Expr Log Ratio,[9]; CREM,-0.036
same,Expr Log Ratio,[9]; CTR9,0.099
same,Expr Log Ratio,[9]; CYB561A3,-0.04
same,Expr Log Ratio,[9]; DEF6,0.017
same,Expr Log Ratio,[9]; DNM1L,0.002
same,Expr Log Ratio,[9]; DTNBP1,0.278
same,Expr Log Ratio,[9]; DTX1,-0.178
same,Expr Log Ratio,[9]; ECM1,0.54
same,Expr Log Ratio,[9]; EHD1,-0.044
same,Expr Log Ratio,[9]; EIF2AK4,0.093
same,Expr Log Ratio,[9]; EIF2B5,-0.104
same,Expr Log Ratio,[9]; ELAVL1,-0.071
same,Expr Log Ratio,[9]; ESR1,-0.045
same,Expr Log Ratio,[9]; ETS1,0.064
same,Expr Log Ratio,[9]; FECH,0.061
same,Expr Log Ratio,[9]; FGF2,0.272
same,Expr Log Ratio,[9]; FGFR4,-0.062
same,Expr Log Ratio,[9]; FTO,-0.134
same,Expr Log Ratio,[9]; GLIS2,-0.228
same,Expr Log Ratio,[9]; GNB1,0.033
same,Expr Log Ratio,[9]; GNB2,-0.086
same,Expr Log Ratio,[9]; GPI,-0.003
same,Expr Log Ratio,[9]; GPNMB,0.582
same,Expr Log Ratio,[9]; GSTP1,-0.086
same,Expr Log Ratio,[9]; H1-2,-0.09
same,Expr Log Ratio,[9]; HDAC1,-0.011
same,Expr Log Ratio,[9]; HDAC8,-0.281
same,Expr Log Ratio,[9]; HNRNPAB,-0.136
same,Expr Log Ratio,[9]; HSF2,-0.15
same,Expr Log Ratio,[9]; HTATIP2,0.03
same,Expr Log Ratio,[9]; IL1A,0.332
same,Expr Log Ratio,[9]; ING1,-0.221
same,Expr Log Ratio,[9]; KDM6B,-0.137
same,Expr Log Ratio,[9]; LOX,-0.113
same,Expr Log Ratio,[9]; LOXL2,0.149
same,Expr Log Ratio,[9]; MAPK8,-0.028
same,Expr Log Ratio,[9]; MAPK9,0.146
same,Expr Log Ratio,[9]; MAPKAP1,-0.077
same,Expr Log Ratio,[9]; MDM4,-0.082
same,Expr Log Ratio,[9]; MED1,-0.016
same,Expr Log Ratio,[9]; MESP1,-0.242
same,Expr Log Ratio,[9]; MESP2,-0.023
same,Expr Log Ratio,[9]; MFN2,-0.162
same,Expr Log Ratio,[9]; MGAT3,-0.275
same,Expr Log Ratio,[9]; MGAT5,0.29
same,Expr Log Ratio,[9]; MPZ,-0.137
same,Expr Log Ratio,[9]; MTA3,-0.001
same,Expr Log Ratio,[9]; NCL,-0.053
same,Expr Log Ratio,[9]; NCOA2,0.045
same,Expr Log Ratio,[9]; NDRG2,0.057
same,Expr Log Ratio,[9]; NFIA,0.254
same,Expr Log Ratio,[9]; NFYB,0.006
same,Expr Log Ratio,[9]; NORAD,-0.057
same,Expr Log Ratio,[9]; NR1H3,0.155
same,Expr Log Ratio,[9]; OIP5-AS1,0.071
same,Expr Log Ratio,[9]; PADI2,0.089
same,Expr Log Ratio,[9]; PCGF2,0.108
same,Expr Log Ratio,[9]; PDCD4,0.188
same,Expr Log Ratio,[9]; PIAS3,0.008
same,Expr Log Ratio,[9]; POR,-0.13
same,Expr Log Ratio,[9]; PPIA,0.046
same,Expr Log Ratio,[9]; PTAFR,0.465
same,Expr Log Ratio,[9]; PTP4A3,-0.295
same,Expr Log Ratio,[9]; PTPN2,0.048
same,Expr Log Ratio,[9]; RALA,-0.18
same,Expr Log Ratio,[9]; REL,-0.144
same,Expr Log Ratio,[9]; RELA,-0.006
same,Expr Log Ratio,[9]; RNASEL,0.378
same,Expr Log Ratio,[9]; RPA1,0.039
same,Expr Log Ratio,[9]; RPS6KA5,-0.015
same,Expr Log Ratio,[9]; SCX,0.154
same,Expr Log Ratio,[9]; SDCBP,0.02
same,Expr Log Ratio,[9]; SDHB,0.024
same,Expr Log Ratio,[9]; SP3,-0.093
same,Expr Log Ratio,[9]; SP100,0.189
same,Expr Log Ratio,[9]; SPINT1,-0.109
same,Expr Log Ratio,[9]; ST6GAL1,-0.01
same,Expr Log Ratio,[9]; STS,0.181
same,Expr Log Ratio,[9]; TGFBR3,0.172
same,Expr Log Ratio,[9]; TGS1,0.171
same,expression of AHR target gene CYP1A1,"[9]; TMD8, 1 μM, 8 h",significantly downregulated
same,number of genes unchanged vs DMSO,"[9]; TMD8, 1 μM, 8 h",14389 genes
same,number of genes unchanged vs ibrutinib,"[9]; TMD8, 1 μM, 8 h",14881 genes
same,number of genes reduced vs DMSO,"[9]; TMD8, 1 μM, 8 h, FDR < 0.01, log2FC < -0.5",274 genes
same,number of genes increased vs DMSO,"[9]; TMD8, 1 μM, 8 h, FDR < 0.01, log2FC > 0.5",384 genes
same,number of genes increased vs ibrutinib,"[9]; TMD8, 1 μM, 8 h, p-value <0.01",105 genes
same,number of genes reduced vs ibrutinib,"[9]; TMD8, 1 μM, 8 h, p-value <0.01",61 genes
same,Expr Log Ratio,[9]; TNF,-0.16
same,Expr Log Ratio,[9]; TNFRSF11A,0.052
same,Expr Log Ratio,[9]; TP53,-0.035
same,Expr Log Ratio,[9]; YWHAZ,0.016
